For series [1], the target named is FAK (Homo sapiens, UniProt Q05397). In words: FAK inhibitory assay (homogeneous time-resolved fluorescence kinase assay). Type of series: biochemical. The following applies: in vitro enzyme activity against FAK. How it is done: The inhibitory activities of the 7a–7c against FAK were tested using a homogeneous time-resolved fluorescence methodology-based kinase assay.
(§1) The FAK kinase inhibition test and the partition coefficient test were conducted according to a previously reported method.

Series [2] relates to mice bearing S-180 tumors. In words: Biodistribution in S-180 tumor-bearing mice. The format is in vivo, Kunming mice. The following applies: for Biodistribution, Tumor (tumor uptake): S-180 tumor; for Biodistribution, Tumor (tumor uptake) / Biodistribution, Blood / Biodistribution, Bone / Biodistribution, Brine / Biodistribution, Heart / Biodistribution, Kidney / Biodistribution, Large intestine / Biodistribution, Liver / Biodistribution, Lung / Biodistribution, Muscle / Biodistribution, Small intestine / Biodistribution, Spleen / Biodistribution, Stomach: mean ± SD, n = 3. On the procedure:
Kunming mice (female, 18−22 g) and S180 ascites mice were purchased from Beijing Xinglong Animal Technology Co., Ltd., Beijing, China and Beijing Vital River Animal Technology Co., Ltd., Beijing, China, respectively. All the mice-concerned experiments were conducted in strict accordance with the “Guidelines for Humane Treatment of Laboratory Animals”, and the whole process was approved by the Animal Protection Committee of Beijing Normal University (Approval Code: BNUCC-EAW-2023-16; Approval date: 14 June 2023). The specific experimental operations were in accordance with those methods described previously.

The nature of series [3]: Octanol/water partition coefficient determination. The format is physicochemical. The settings on record: pH 7.4, read-out: logD7.4. How it is done:
The partition coefficients of the radiotracers [^18F]7a and [^18F]7c were determined to evaluate the octanol/water partition properties.
as §1

Setting [4] is: 30 min after intravenous injection.
Setting [5] is: 60 min after intravenous injection.
The mark [6] stands for this setting: 120 min after intravenous injection.

SMILES strings stand for the structures.

Sequence of FAK (Q05397 whole entry, species assumed): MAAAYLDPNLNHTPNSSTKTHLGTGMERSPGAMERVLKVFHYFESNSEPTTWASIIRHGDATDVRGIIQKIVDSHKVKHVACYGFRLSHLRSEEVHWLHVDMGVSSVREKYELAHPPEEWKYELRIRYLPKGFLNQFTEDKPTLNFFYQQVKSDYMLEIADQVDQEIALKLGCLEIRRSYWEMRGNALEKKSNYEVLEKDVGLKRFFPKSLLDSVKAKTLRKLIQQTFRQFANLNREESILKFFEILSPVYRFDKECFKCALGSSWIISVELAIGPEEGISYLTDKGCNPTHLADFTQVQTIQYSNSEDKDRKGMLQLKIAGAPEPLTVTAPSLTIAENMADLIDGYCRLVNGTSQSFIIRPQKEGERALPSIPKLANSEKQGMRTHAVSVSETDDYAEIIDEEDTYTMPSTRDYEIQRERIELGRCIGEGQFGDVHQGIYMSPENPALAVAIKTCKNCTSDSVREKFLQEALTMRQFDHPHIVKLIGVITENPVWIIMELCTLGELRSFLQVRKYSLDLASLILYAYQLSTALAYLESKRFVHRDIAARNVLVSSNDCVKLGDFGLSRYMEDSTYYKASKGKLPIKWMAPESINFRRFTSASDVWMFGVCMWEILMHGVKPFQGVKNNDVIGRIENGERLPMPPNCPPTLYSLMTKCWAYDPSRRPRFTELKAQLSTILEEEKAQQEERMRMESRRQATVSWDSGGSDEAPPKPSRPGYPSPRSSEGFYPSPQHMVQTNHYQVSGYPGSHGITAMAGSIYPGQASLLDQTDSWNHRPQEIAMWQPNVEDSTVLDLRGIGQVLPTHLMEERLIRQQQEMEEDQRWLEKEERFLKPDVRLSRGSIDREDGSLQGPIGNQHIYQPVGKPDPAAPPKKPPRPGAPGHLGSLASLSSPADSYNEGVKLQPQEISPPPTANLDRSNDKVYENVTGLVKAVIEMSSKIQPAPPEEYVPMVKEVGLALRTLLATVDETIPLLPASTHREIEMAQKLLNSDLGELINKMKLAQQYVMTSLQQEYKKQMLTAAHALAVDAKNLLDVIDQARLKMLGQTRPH

Consider `CNC(=O)c1cc(N2CCS(=O)(=O)CC2)ccc1Nc1nc(Nc2ccc(OCCOCCOCCF)cc2)ncc1Br` [Compound 7a, 2-((5-bromo-2-((4-(2-(2-(2-fluoroethoxy)ethoxy)ethoxy)phenyl)amino)pyrimidin-4-yl)amino)-5-(1,1-dioxidothiomorpholino)-N-methylbenzamide], for which the IC50 in series [1] was determined as 5.59 nM.
Turning to `CNC(=O)c1cc(N2CCS(=O)(=O)CC2)ccc1Nc1nc(Nc2ccc(OCCOCCOCCF)c(C(=O)N3CCN(C(C)=O)CC3)c2)ncc1Br` [Compound 7b, 2-((2-((3-(4-acetylpiperazine-1-carbonyl)-4-(2-(2-(2-fluoroethoxy)ethoxy)ethoxy)phenyl)amino)-5-bromopyrimidin-4-yl)amino)-5-(1,1-dioxidothiomorpholino)-N-methylbenzamide], in series [1], the IC50 is 24.6 nM.
In series [1], `CNC(=O)c1cc(N2CCS(=O)(=O)CC2)ccc1Nc1nc(Nc2ccc(OCCOCCOCCF)c(-c3cnn(C)c3)c2)ncc1Br` [Compound 7c, 2-((5-bromo-2-((4-(2-(2-(2-fluoroethoxy)ethoxy)ethoxy)-3-(1-methyl-1H-pyrazol-4-yl)phenyl)amino)pyrimidin-4-yl)amino)-5-(1,1-dioxidothiomorpholino)-N-methylbenzamide] displayed an IC50 of 1.27 nM. For the same compound, the “Biodistribution, Tumor (tumor uptake)” value in series [2] (setting [4]) is listed as 6.58 ± 0.46 % ID/g.
Regarding `CNC(=O)c1cc(N2CCN(C(C)=O)CC2)ccc1Nc1nc(Nc2ccc(OCCOCCOCCF)c(C(=O)N3CCOCC3)c2)ncc1Br` [Compound 7d, 5-(4-acetylpiperazin-1-yl)-2-((5-bromo-2-((4-(2-(2-(2-fluoroethoxy)ethoxy)ethoxy)-3-(morpholine-4-carbonyl)phenyl)amino)pyrimidin-4-yl)amino)-N-methylbenzamide], the IC50 in series [1] is 1970 nM.
With `CNC(=O)c1cc(N2CCN(C(C)=O)CC2)ccc1Nc1nc(Nc2ccc(OCCOCCOCCF)c(-c3cnn(C)c3)c2)ncc1Br` [Compound 7e, 5-(4-acetylpiperazin-1-yl)-2-((5-bromo-2-((4-(2-(2-(2-fluoroethoxy)ethoxy)ethoxy)-3-(1-methyl-1H-pyrazol-4-yl)phenyl)amino)pyrimidin-4-yl)amino)-N-methylbenzamide], the IC50 in series [1] was determined as 643 nM.
Compound `CNC(=O)c1cc(N2CCOCC2)ccc1Nc1nc(Nc2ccc(OCCOCCOCCF)c(C(=O)N3CCN(C(C)=O)CC3)c2)ncc1Br` [Compound 7f] displayed an IC50 in series [1] of 10 nM.
Still for that read-out and setting: the result for `CCN1CCN(c2ccc(Nc3nc(Nc4ccc(OCCOCCOCCF)c(-c5cnn(C)c5)c4)ncc3Br)c(C(=O)NC)c2)CC1` [Compound 7g, 2-((5-bromo-2-((4-(2-(2-(2-fluoroethoxy)ethoxy)ethoxy)-3-(1-methyl-1H-pyrazol-4-yl)phenyl)amino)pyrimidin-4-yl)amino)-5-(4-ethylpiperazin-1-yl)-N-methylbenzamide] reads 1240 nM.
As for `CNC(=O)c1cc(N2CCS(=O)(=O)CC2)ccc1Nc1nc(Nc2ccc(OCCOCCOCC[18F])cc2)ncc1Br` [[^18F]7a], the logD in series [3] came to 0.96. In series [2] (setting [4]), the Tumor/blood ratio was 1.34; the Tumor/muscle ratio was found to be 0.80; the “Biodistribution, Blood” value amounted to 0.98 ± 0.26 % ID/g; the “Biodistribution, Bone” value stood at 2.32 ± 0.45 % ID/g. Moreover, in series [2] (setting [4]), the “Biodistribution, Brine” value came out at 0.57 ± 0.08 % ID/g; the “Biodistribution, Heart” value is 3.05 ± 0.29 % ID/g; the “Biodistribution, Kidney” value is 3.02 ± 1.70 % ID/g; the “Biodistribution, Large intestine” value turned out to be 1.46 ± 0.13 % ID/g. Moreover, in series [2] (setting [4]), the “Biodistribution, Liver” value is given as 23.49 ± 4.29 % ID/g; the “Biodistribution, Lung” value is reported as 33.55 ± 5.59 % ID/g; the “Biodistribution, Muscle” value is given as 1.63 ± 0.34 % ID/g; the “Biodistribution, Small intestine” value amounted to 2.95 ± 0.17 % ID/g. In series [2] (setting [4]), the “Biodistribution, Spleen” value is recorded as 5.43 ± 1.12 % ID/g; the “Biodistribution, Stomach” value came out at 0.92 ± 0.28 % ID/g; the “Biodistribution, Tumor (tumor uptake)” value is on record as 1.31 ± 0.07 % ID/g. Moreover, in series [2] (setting [5]), the Tumor/blood ratio is listed as 1.45; the Tumor/muscle ratio is recorded as 0.56; the “Biodistribution, Blood” value is listed as 0.96 ± 0.10 % ID/g; the “Biodistribution, Bone” value is 2.96 ± 0.43 % ID/g. For the same compound, in series [2] (setting [5]), the “Biodistribution, Brine” value is on record as 1.08 ± 0.13 % ID/g; the “Biodistribution, Heart” value is 1.12 ± 0.03 % ID/g; the “Biodistribution, Kidney” value came out at 1.47 ± 0.18 % ID/g; the “Biodistribution, Large intestine” value came out at 1.36 ± 0.36 % ID/g. In series [2] (setting [5]), the “Biodistribution, Liver” value is listed as 23.16 ± 2.65 % ID/g; the “Biodistribution, Lung” value was 28.77 ± 5.72 % ID/g; the “Biodistribution, Muscle” value was 2.50 ± 0.59 % ID/g; the “Biodistribution, Small intestine” value is on record as 1.58 ± 0.35 % ID/g. Also, in series [2] (setting [5]), the “Biodistribution, Spleen” value was 2.53 ± 0.21 % ID/g; the “Biodistribution, Stomach” value was 0.80 ± 0.21 % ID/g; the “Biodistribution, Tumor (tumor uptake)” value was found to be 1.39 ± 0.30 % ID/g. Also, in series [2] (setting [6]), the Tumor/blood ratio came out at 0.89; the Tumor/muscle ratio was determined as 4.30; the “Biodistribution, Blood” value was 0.92 ± 0.15 % ID/g; the “Biodistribution, Bone” value came to 1.27 ± 0.42 % ID/g. For the same compound, in series [2] (setting [6]), the “Biodistribution, Brine” value worked out at 0.16 ± 0.01 % ID/g; the “Biodistribution, Heart” value is recorded as 0.85 ± 0.09 % ID/g; the “Biodistribution, Kidney” value worked out at 1.16 ± 0.06 % ID/g; the “Biodistribution, Large intestine” value worked out at 4.5 ± 1.91 % ID/g. Also, in series [2] (setting [6]), the “Biodistribution, Liver” value came out at 8.86 ± 3.14 % ID/g; the “Biodistribution, Lung” value is 11.63 ± 1.25 % ID/g; the “Biodistribution, Muscle” value is 0.20 ± 0.03 % ID/g; the “Biodistribution, Small intestine” value came out at 0.96 ± 0.29 % ID/g. Besides, in series [2] (setting [6]), the “Biodistribution, Spleen” value was determined as 5.58 ± 1.06 % ID/g; the “Biodistribution, Stomach” value came to 1.16 ± 0.40 % ID/g; the “Biodistribution, Tumor (tumor uptake)” value was 0.86 ± 0.34 % ID/g.
With `CNC(=O)c1cc(N2CCS(=O)(=O)CC2)ccc1Nc1nc(Nc2ccc(OCCOCCOCC[18F])c(-c3cnn(C)c3)c2)ncc1Br` [[^18F]7c], the logD in series [3] stood at 0.74. In addition, in series [2] (setting [4]), the Tumor/blood ratio amounted to 2.40; the Tumor/muscle ratio was determined as 1.88; the “Biodistribution, Blood” value is on record as 2.74 ± 0.11 % ID/g; the “Biodistribution, Bone” value turned out to be 4.12 ± 0.39 % ID/g. Moreover, in series [2] (setting [4]), the “Biodistribution, Brine” value came out at 2.81 ± 0.06 % ID/g; the “Biodistribution, Heart” value was 3.46 ± 0.65 % ID/g; the “Biodistribution, Kidney” value worked out at 4.00 ± 0.25 % ID/g; the “Biodistribution, Large intestine” value is listed as 6.18 ± 0.60 % ID/g. In addition, in series [2] (setting [4]), the “Biodistribution, Liver” value is listed as 17.64 ± 4.45 % ID/g; the “Biodistribution, Lung” value is on record as 120.47 ± 15.08 % ID/g; the “Biodistribution, Muscle” value came to 3.50 ± 0.18 % ID/g; the “Biodistribution, Small intestine” value was found to be 13.02 ± 1.93 % ID/g. In series [2] (setting [4]), the “Biodistribution, Spleen” value is 16.32 ± 1.26 % ID/g; the “Biodistribution, Stomach” value was determined as 5.81 ± 1.02 % ID/g; the “Biodistribution, Tumor (tumor uptake)” value came out at 6.58 ± 0.46 % ID/g. Further, in series [2] (setting [5]), the Tumor/blood ratio was 1.71; the Tumor/muscle ratio turned out to be 2.09; the “Biodistribution, Blood” value stood at 3.43 ± 0.04 % ID/g; the “Biodistribution, Bone” value is 4.86 ± 0.30 % ID/g. Besides, in series [2] (setting [5]), the “Biodistribution, Brine” value turned out to be 3.12 ± 0.66 % ID/g; the “Biodistribution, Heart” value turned out to be 2.53 ± 0.56 % ID/g; the “Biodistribution, Kidney” value is on record as 3.82 ± 0.44 % ID/g; the “Biodistribution, Large intestine” value came to 4.47 ± 0.44 % ID/g. Further, in series [2] (setting [5]), the “Biodistribution, Liver” value was 19.21 ± 3.81 % ID/g; the “Biodistribution, Lung” value was 128.13 ± 6.74 % ID/g; the “Biodistribution, Muscle” value is recorded as 2.80 ± 0.49 % ID/g; the “Biodistribution, Small intestine” value is on record as 5.73 ± 0.82 % ID/g. Further, in series [2] (setting [5]), the “Biodistribution, Spleen” value is given as 8.48 ± 0.10 % ID/g; the “Biodistribution, Stomach” value is given as 1.14 ± 0.16 % ID/g; the “Biodistribution, Tumor (tumor uptake)” value is 5.85 ± 0.28 % ID/g. Besides, in series [2] (setting [6]), the Tumor/blood ratio was determined as 1.37; the Tumor/muscle ratio is given as 2.16; the “Biodistribution, Blood” value was found to be 3.79 ± 0.46 % ID/g; the “Biodistribution, Bone” value is given as 10.70 ± 1.01 % ID/g. In series [2] (setting [6]), the “Biodistribution, Brine” value is listed as 2.01 ± 0.18 % ID/g; the “Biodistribution, Heart” value was found to be 3.12 ± 0.25 % ID/g; the “Biodistribution, Kidney” value was 3.50 ± 0.37 % ID/g; the “Biodistribution, Large intestine” value is 48.07 ± 9.85 % ID/g. Also, in series [2] (setting [6]), the “Biodistribution, Liver” value was determined as 28.36 ± 5.74 % ID/g; the “Biodistribution, Lung” value came to 125.29 ± 16.25 % ID/g; the “Biodistribution, Muscle” value is given as 2.04 ± 0.12 % ID/g; the “Biodistribution, Small intestine” value worked out at 7.49 ± 1.46 % ID/g. For the same compound, in series [2] (setting [6]), the “Biodistribution, Spleen” value was 24.70 ± 4.31 % ID/g; the “Biodistribution, Stomach” value worked out at 3.32 ± 0.31 % ID/g; the “Biodistribution, Tumor (tumor uptake)” value was 5.18 ± 0.68 % ID/g.

By IC50 is commonly meant the concentration at which inhibition is half-maximal. Low readings indicate greater potency in that assay, high ones weaker potency in that assay.
